Measured values taken from ChEMBL document CHEMBL1201862, “PubChem BioAssay data set” (2004).
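Growth conditions: 96-well plates. Treatment: test compound, 48 hours, 5 concentrations. Analysis: linear interpolation between bracketing concentrations; unreached endpoints set to highest concentration. Abbreviation: GI50, concentration required for 50% inhibition of growth.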 Calls of active or inactive are those of the source. Cut-off read from the data, not from the text of the source: active = GI50 up to about 1.1 µM and inactive = higher.

Columns and labels:
Assay in all cases: DTP human tumour cell line panel, 48 h
786-0 = test system: 786-0
A498 = test system: A498
A549 = test system: A549
ACHN = test system: ACHN
CAKI-1 = test system: CAKI-1
CCRF-CEM = test system: CCRF-CEM
COLO 205 = test system: COLO 205
DLD-1 = test system: DLD-1
DMS-114 = test system: DMS-114
DMS-273 = test system: DMS-273
EKVX = test system: EKVX
HCC 2998 = test system: HCC 2998
HCT-116 = test system: HCT-116
HCT-15 = test system: HCT-15
HL-60 = test system: HL-60
HOP-18 = test system: HOP-18
HOP-62 = test system: HOP-62
HT-29 = test system: HT-29
IGROV-1 = test system: IGROV-1
K562 = test system: K562
KM-20L2 = test system: KM-20L2
KM12 = test system: KM12
LOX IMVI = test system: LOX IMVI
LXFL 529 = test system: LXFL 529
M14 = test system: M14
M19-MEL = test system: M19-MEL
MOLT-4 = test system: MOLT-4
Malme-3M = test system: Malme-3M
NCI-H226 = test system: NCI-H226
NCI-H23 = test system: NCI-H23
NCI-H460 = test system: NCI-H460
NCI-H522 = test system: NCI-H522
OVCAR-3 = test system: OVCAR-3
OVCAR-4 = test system: OVCAR-4
OVCAR-5 = test system: OVCAR-5
OVCAR-8 = test system: OVCAR-8
RPMI-8226 = test system: RPMI-8226
RXF 393 = test system: RXF 393
SF-268 = test system: SF-268
SF-295 = test system: SF-295
SK-MEL-28 = test system: SK-MEL-28
SK-MEL-2 = test system: SK-MEL-2
SK-MEL-5 = test system: SK-MEL-5
SK-OV-3 = test system: SK-OV-3
SN12C = test system: SN12C
SNB-19 = test system: SNB-19
SNB-75 = test system: SNB-75
SR = test system: SR
SW-620 = test system: SW-620
TK-10 = test system: TK-10
U-251 = test system: U-251
UACC-257 = test system: UACC-257
UACC-62 = test system: UACC-62
UO-31 = test system: UO-31
HOP-92 = test system: HOP-92
SF-539 = test system: SF-539
SNB-78 = test system: SNB-78
XF498 = test system: XF498

In the case of `CCN(CC)C(=O)c1cccc2c(OC)ccc(OC)c12`, the GI50 (786-0) is reported as > 100 µM (inactive), the GI50 (A498) is reported as > 100 µM (inactive) and the GI50 (A549) is reported as > 100 µM (inactive). The GI50 (ACHN) was > 100 µM (inactive), the GI50 (CAKI-1) was > 100 µM (inactive) and the GI50 (CCRF-CEM) was > 100 µM (inactive). For the same molecule, the GI50 (COLO 205) was > 100 µM (inactive), the GI50 (DLD-1) was > 100 µM (inactive) and the GI50 (DMS-114) was > 100 µM (inactive). The GI50 (DMS-273) was > 100 µM (inactive), the GI50 (EKVX) was > 100 µM (inactive) and the GI50 (HCC 2998) was > 100 µM (inactive). The GI50 (HCT-116) was > 100 µM (inactive), the GI50 (HCT-15) was > 100 µM and the GI50 (HL-60) was > 100 µM (inactive). For the same molecule, the GI50 (HOP-18) was > 100 µM (inactive), the GI50 (HOP-62) was > 100 µM (inactive) and the GI50 (HT-29) was > 100 µM (inactive). For the same molecule, the GI50 (IGROV-1) was > 100 µM (inactive), the GI50 (K562) was > 100 µM (inactive) and the GI50 (KM-20L2) was > 100 µM (inactive). The GI50 (KM12) was > 100 µM (inactive), the GI50 (LOX IMVI) was > 100 µM (inactive) and the GI50 (LXFL 529) was > 100 µM (inactive). For the same molecule, the GI50 (M14) was > 100 µM (inactive), the GI50 (M19-MEL) was > 100 µM (inactive) and the GI50 (MOLT-4) was > 100 µM (inactive). The GI50 (Malme-3M) was > 100 µM (inactive), the GI50 (NCI-H226) was > 100 µM (inactive) and the GI50 (NCI-H23) was > 100 µM (inactive). For the same molecule, the GI50 (NCI-H460) was > 100 µM (inactive), the GI50 (NCI-H522) was > 100 µM (inactive) and the GI50 (OVCAR-3) was > 100 µM (inactive). For the same molecule, the GI50 (OVCAR-4) was > 100 µM (inactive), the GI50 (OVCAR-5) was > 100 µM (inactive) and the GI50 (OVCAR-8) was > 100 µM (inactive). For the same molecule, the GI50 (RPMI-8226) was > 100 µM (inactive), the GI50 (RXF 393) was > 100 µM (inactive) and the GI50 (SF-268) was > 100 µM (inactive). The GI50 (SF-295) was > 100 µM (inactive), the GI50 (SK-MEL-28) was > 100 µM (inactive) and the GI50 (SK-MEL-2) was > 100 µM (inactive). The GI50 (SK-MEL-5) was > 100 µM (inactive), the GI50 (SK-OV-3) was > 100 µM (inactive) and the GI50 (SN12C) was > 100 µM (inactive). The GI50 (SNB-19) was > 100 µM (inactive), the GI50 (SNB-75) was > 100 µM (inactive) and the GI50 (SR) was > 100 µM (inactive). For the same molecule, the GI50 (SW-620) was > 100 µM (inactive), the GI50 (TK-10) was > 100 µM (inactive) and the GI50 (U-251) was > 100 µM (inactive). For the same molecule, the GI50 (UACC-257) was > 100 µM (inactive), the GI50 (UACC-62) was > 100 µM (inactive) and the GI50 (UO-31) was > 100 µM (inactive).
`c1ccc2c(OCCSCCCCCCCCCCSCCOc3cccc4ccccc34)cccc2c1` was tested, and the GI50 (786-0) was > 100 µM (inactive), the GI50 (A498) was > 100 µM (inactive) and the GI50 (A549) was > 100 µM (inactive). For the same molecule, the GI50 (ACHN) was > 100 µM (inactive), the GI50 (CAKI-1) was > 100 µM (inactive) and the GI50 (CCRF-CEM) was > 100 µM (inactive). The GI50 (COLO 205) was > 100 µM (inactive), the GI50 (DLD-1) was > 100 µM (inactive) and the GI50 (DMS-114) was > 100 µM (inactive). For the same molecule, the GI50 (DMS-273) was > 100 µM (inactive), the GI50 (EKVX) was > 100 µM (inactive) and the GI50 (HCC 2998) was > 100 µM (inactive). For the same molecule, the GI50 (HCT-15) was > 100 µM, the GI50 (HL-60) was > 100 µM (inactive) and the GI50 (HOP-18) was > 100 µM (inactive). The GI50 (HOP-62) was > 100 µM (inactive), the GI50 (HOP-92) was > 100 µM (inactive) and the GI50 (HT-29) was > 100 µM (inactive). For the same molecule, the GI50 (IGROV-1) was > 100 µM (inactive), the GI50 (K562) was > 100 µM (inactive) and the GI50 (KM-20L2) was > 100 µM (inactive). The GI50 (KM12) was > 100 µM (inactive), the GI50 (LOX IMVI) was > 100 µM (inactive) and the GI50 (M19-MEL) was > 100 µM (inactive). For the same molecule, the GI50 (MOLT-4) was > 100 µM (inactive), the GI50 (Malme-3M) was > 100 µM (inactive) and the GI50 (NCI-H226) was > 100 µM (inactive). For the same molecule, the GI50 (NCI-H23) was > 100 µM (inactive), the GI50 (NCI-H460) was > 100 µM (inactive) and the GI50 (NCI-H522) was > 100 µM (inactive). For the same molecule, the GI50 (OVCAR-3) was > 100 µM (inactive), the GI50 (OVCAR-5) was > 100 µM (inactive) and the GI50 (OVCAR-8) was > 100 µM (inactive). The GI50 (RPMI-8226) was > 100 µM (inactive), the GI50 (RXF 393) was > 100 µM (inactive) and the GI50 (SF-268) was > 100 µM (inactive). For the same molecule, the GI50 (SF-295) was > 100 µM (inactive), the GI50 (SF-539) was > 100 µM (inactive) and the GI50 (SK-MEL-28) was > 100 µM (inactive). The GI50 (SK-MEL-2) was > 100 µM (inactive), the GI50 (SK-MEL-5) was > 100 µM (inactive) and the GI50 (SK-OV-3) was > 100 µM (inactive). For the same molecule, the GI50 (SN12C) was > 100 µM (inactive), the GI50 (SNB-19) was > 100 µM (inactive) and the GI50 (SNB-75) was > 100 µM (inactive). The GI50 (SNB-78) was > 100 µM (inactive), the GI50 (SW-620) was > 100 µM (inactive) and the GI50 (TK-10) was > 100 µM (inactive). The GI50 (U-251) was > 100 µM (inactive), the GI50 (UACC-257) was > 100 µM (inactive) and the GI50 (UACC-62) was > 100 µM (inactive). The GI50 (UO-31) was > 100 µM (inactive).
With `C[C@@H](NC1CCCC[C@H]1O)c1ccccc1` (some centres undefined) the GI50 (786-0) was > 100 µM (inactive), the GI50 (A498) was > 100 µM (inactive) and the GI50 (A549) was > 100 µM (inactive). For the same molecule, the GI50 (ACHN) was > 100 µM (inactive), the GI50 (CCRF-CEM) was > 100 µM (inactive) and the GI50 (COLO 205) was > 100 µM (inactive). The GI50 (DLD-1) was > 100 µM (inactive), the GI50 (DMS-273) was > 100 µM (inactive) and the GI50 (EKVX) was > 100 µM (inactive). The GI50 (HCC 2998) was > 100 µM (inactive), the GI50 (HCT-116) was > 100 µM (inactive) and the GI50 (HCT-15) was > 100 µM. For the same molecule, the GI50 (HL-60) was > 100 µM (inactive), the GI50 (HOP-18) was > 100 µM (inactive) and the GI50 (HOP-62) was > 100 µM (inactive). For the same molecule, the GI50 (HOP-92) was > 100 µM (inactive), the GI50 (HT-29) was > 100 µM (inactive) and the GI50 (IGROV-1) was > 100 µM (inactive). The GI50 (K562) was > 100 µM (inactive), the GI50 (KM-20L2) was > 100 µM (inactive) and the GI50 (KM12) was > 100 µM (inactive). For the same molecule, the GI50 (LOX IMVI) was > 100 µM (inactive), the GI50 (M14) was > 100 µM (inactive) and the GI50 (M19-MEL) was > 100 µM (inactive). The GI50 (MOLT-4) was > 100 µM (inactive), the GI50 (Malme-3M) was > 100 µM (inactive) and the GI50 (NCI-H226) was > 100 µM (inactive). For the same molecule, the GI50 (NCI-H23) was > 100 µM (inactive), the GI50 (NCI-H460) was > 100 µM (inactive) and the GI50 (NCI-H522) was > 100 µM (inactive). The GI50 (OVCAR-3) was > 100 µM (inactive), the GI50 (OVCAR-4) was > 100 µM (inactive) and the GI50 (OVCAR-8) was > 100 µM (inactive). For the same molecule, the GI50 (RPMI-8226) was > 100 µM (inactive), the GI50 (RXF 393) was > 100 µM (inactive) and the GI50 (SF-268) was > 100 µM (inactive). The GI50 (SF-295) was > 100 µM (inactive), the GI50 (SF-539) was > 100 µM (inactive) and the GI50 (SK-MEL-28) was > 100 µM (inactive). For the same molecule, the GI50 (SK-MEL-2) was > 100 µM (inactive), the GI50 (SK-MEL-5) was > 100 µM (inactive) and the GI50 (SK-OV-3) was > 100 µM (inactive). For the same molecule, the GI50 (SN12C) was > 100 µM (inactive), the GI50 (SNB-19) was > 100 µM (inactive) and the GI50 (SNB-75) was 77.6 µM (inactive). The GI50 (SNB-78) was > 100 µM (inactive), the GI50 (SW-620) was > 100 µM (inactive) and the GI50 (TK-10) was > 100 µM (inactive). The GI50 (U-251) was > 100 µM (inactive), the GI50 (UACC-257) was > 100 µM (inactive) and the GI50 (UACC-62) was > 100 µM (inactive). For the same molecule, the GI50 (UO-31) was > 100 µM (inactive) and the GI50 (XF498) was > 100 µM (inactive).
